Laboratory results: patent publication US6770279B1, “TNFα antagonists and cyclosporin in therapy of rheumatoid arthritis” (The Kennedy Institute of Rheumatology, priority 1992, dated 2004)

Assays:
[1] = test system: collagen type II induced arthritis in the DBA/1 mouse; test: Collagen type II induced arthritis: clinical score; format: in vivo; details: Example 7B
Method: Male DBA/1 mice were immunized intradermally with 100 μg of bovine type II collagen emulsified in complete Freund's adjuvant (Difco Laboratories, East Molsey, UK). The mean day of onset of arthritis was approximately one month after immunization. […] Arthritis was monitored for paw-swelling (measured with calipers) for 10 days, after which the mice were sacrificed and joints were processed for histology.
Clinical Score was assessed on the following scale: 0=normal; 1=slight swelling and/or erythema; 2=pronounced edematous swelling; and 3=joint rigidity. […]
Male DBA/1 mice were immunized intradermally with 100 μg of bovine type II collagen emulsified in complete Freund's adjuvant (Difco Laboratories, East Molsey, UK). […] Arthritis was monitored for paw swelling (measured with calipers) for 10 days, after which the mice were sacrificed and joints were processed for histology.
Clinical score was assessed on the following scale: 0=normal; 1=slight swelling and/or erythema; 2=pronounced edematous swelling, and 3=joint rigidity. […]
Male DBA/1 mice were immunized intradermally with 100 μg of bovine type II collagen emulsified in complete Freund's adjuvant (Difco Laboratories, East Molsey, UK). […] Arthritis was monitored for paw swelling (measured with calipers) for 10 days, after which the mice were sacrificed and joints were processed for histology. […]

[2] = test system: TNF expression in the joints; test: Immunohistochemical studies of TNF expression in joints; format: in vivo, mouse; details: preliminary immunohistochemical studies; mice with collagen-induced arthritis
Source text: These findings indicate that rolipram is effective in established collagen-induced arthritis and may therefore be useful in the treatment of RA.

[3] = test system: collagen type II induced arthritis in the DBA/1 mouse; test: Collagen type II induced arthritis: limb involvement (number of arthritic limbs); format: in vivo; details: Example 2B; anti-TNF mAb 300 μg; methylprednisolone acetate 2 mg/kg
Method: Male DBA/1 mice were immunized intradermally at 8-12 weeks of age with 100 μg type II collagen emulsified in Freund's complete adjuvant (Difco Laboratories, East Molsey, UK). Day one of arthritis was considered to be the day that erythema and/or swelling was first observed in one or more limbs. Arthritis became clinically evident around 30 days after immunization with type II collagen. For each mouse, treatment was started on the first day that arthritis was observed and continued over a 10 day period, after which the mice were sacrificed and joints were processed for histology. Monoclonal antibody (mAb) treatment was administered on days 1, 4, and 7. For anti-TNF antibody, TN3-19.12, a neutralizing hamster IgG1 anti-TNFα/β monoclonal antibody (mAb), was used (Sheehan, K. C. et al., J. Immunology 142:3884-3893 (1989)). The isotype control was L2. The anti-TNF antibody and the isotype control were provided by R. Schreiber, Washington University Medical School (St. Louis, Mo., USA), in conjunction with Celltech (Slough, UK). The cell-depleting anti-CD4 monoclonal antibody (rat IgG2b) consisted of a 1:1 mixture of YTS 191.1.2 and YTA 3.1.2, provided by H. Waldmann (University of Cambridge, UK) (Galfre, G. et al., Nature 277: 131-133 (1979); Cobbold, S. P. et al., Nature 312: 548-551 (1984); Qin, S. et al., European J. Immunology 17:1159-1165 (1987)).
In collagen-induced arthritis, as in RA, it is usual for additional limbs to become involved after the initial appearance of clinical disease and new limb involvement is an important indicator of the progression of the disease. […]
Male DBA/1 mice were immunized intradermally with 100 μg of bovine type II collagen emulsified in complete Freund's adjuvant (Difco Laboratories, East Molsey, UK). […] Arthritis was monitored for clinical score and paw swelling (measured with calipers) for 10 days, after which the mice were sacrificed and joints were processed for histology. […]

**Q.** `COc1ccc(C2CNC(=O)C2)cc1OC1CCCC1` (stereo not drawn) [rolipram] was tested. Which “mean clinical score on day 10 (±SE)” value ([1]; rolipram 3 mg/kg twice daily, anti-TNF mAb 300 μg days 1, 4, 7, maximum score 12) did it give?
**A.** Its value is 1.0±0.3.

**Q.** What about the “severity of arthritis (clinical score)” value ([1]; rolipram 3, 5 or 10 mg/kg i.p. twice daily, vs Cremophor EL) of the same molecule?
**A.** The value was “significant reduction in the severity of arthritis”.

**Q.** And the “TNF expression in the joints” value [2]?
**A.** Its value is “down-regulation of TNF expression in the joints”.

**Q.** For `CC(=O)OCC(=O)[C@@]1(O)CC[C@H]2[C@@H]3C[C@H](C)C4=CC(=O)C=C[C@]4(C)[C@H]3[C@@H](O)C[C@@]21C` [Methylprednisolone acetate, methylprednisolone acetate], which “Increase (%) in limbs affected” value [3] is on record?
**A.** Its value is 33%.

**Q.** And the “Limbs Affected (mean ± SEM) Day 1” value [3]?
**A.** Its value is 1.00 ± 0.00.

**Q.** What about the “Limbs Affected (mean ± SEM) Day 10” value [3] of the same molecule?
**A.** Its value is 1.50 ± 0.22.
